Assay results as given in publication PMC5318439, “The Novel Toll-Like Receptor 2 Agonist SUP3 Enhances Antigen Presentation and T Cell Activation by Dendritic Cells” (Frontiers in Immunology, 2017).
Where a SMILES comes first, the peptide text is derived from it. The star is where a group is joined. X1 = CCCCCCCCCCCCCCNC(=O)OC[C@H](C*)OC(=O)NCCCCCCCCCCCCCC; Palmitoyl = CCCCCCCCCCCCCCCC(=O)*

What was measured:
Tlr2^−/− RAW 264.7 cells = test: TNFα production by Tlr2−/− RAW 264.7 cells (TLR2 specificity); assay type: cell-based; conditions: 500 nM, 8 h
Method: Tlr2^−/− RAW 264.7 cells were generated by lentiviral CRISPR-Cas9 system as described previously ([36]). Briefly, target guide sequences (5′-[…]-3′, 3′-[…]-5′) designed by Genome Engineering 3.0 were ligated into lentiviral vector lentiCRISPR (Addgene 52961). Then lentiCRISPR as well as packaging plasmids pMD2.G (Addgene 12259) and psPax2 (Addgene 12260) were co-transfected into 293FT cells by CaCl2 (12.5 mM) for virus packaging. Fresh cell culture medium was changed 12 h post-transfection. After another 72 h, 293FT cell culture supernatant containing virus was harvested, filtered, and concentrated. Then, RAW 264.7 cells were infected by the virus (~5 × 10^5 TU/mL) with the presence of 8 µg/mL polybrene (Sigma H9268). […]
Splenic DCs (5 × 10^5 cells/mL) were stimulated by Pam3 (200 nM), SUP3 (200 nM), or CpG ODN 1668 (20 nM; Adipogen IAX-200-001) in the GM-CSF (20 ng/mL) supplemented medium for indicated periods. […] Cytokines (IL-6, eBioscience 88-7064; TNFα, eBioscience 88-7324; IL-12p40, BioLegend 431604), chemokine (MIP1α, R&D Systems DY450-05), and total IgM (eBioscience, 88-50470) were quantified by ELISA kits following the instructions of manufacturers.
Figure 1 Specificity and activity of novel TLR2 agonist SUP3. […] The production of cytokines IL-6 and TNFα in culture supernatant was determined by ELISA. *p < 0.05, ****p < 0.0001, “n.s.” indicates statistically non-significant.

splenic CD8^+ cDCs = test: CD40 and CD86 expression on splenic CD8+ cDCs after i.v. administration; assay type: in vivo, mice; conditions: 2 nmol per mouse i.v., 1 h
Method: Figure 4 SUP3 stimulated maturation of CD8^+ conventional dendritic cells (cDCs). (A) Purified CD8^+ cDCs were treated with SUP3 (200 nM) or Pam3 (200 nM) in the presence of granulocyte-macrophage colony-stimulating factor (GM-CSF) (20 ng/mL) for 24 h. The surface expression of costimulatory and major histocompatibility complex (MHC) molecules were then analyzed by flow cytometry. Representative data from three independent experiments were shown. “Isotype” represented relative isotype antibody staining of Pam3 or SUP3 stimulated cells. (B) SUP3 (2 nmol per mouse), Pam3 (2 nmol per mouse), or PBS were i.v. injected into mice for 1 h. Splenic CD8^+ cDCs were enriched, and surface expression of CD40 and CD86 was analyzed by flow cytometry. Representative data from two independent experiments with three mice for each group were shown. (C) Purified CD8^+ cDCs were treated with SUP3 (200 nM) or Pam3 (200 nM) for indicated periods (0~120 min), and western blot analysis was performed with the cell lysate for phosphorylated p65 (p-p65), IκBα, p-ERK, ERK, p-JNK, JNK, p-p38, and p38. Blot of p38 was also regarded as loading control. (D) Purified CD8^+ cDCs were treated with CpG 1668 (20 nM), SUP3 (200 nM), or Pam3 (200 nM) in the presence of GM-CSF (20 ng/mL). Supernatants were harvested 24 and 48 h post-stimulation, and cytokines were measured by ELISA. […]

splenic B cells = test: B cell activation markers in vitro; assay type: cell-based, mice; conditions: 200 nM, 2 × 10^6 cells/mL, 24 h
From the text: Splenic DCs were purified as described previously ([37]). CD8^+ cDCs expanded by B16-Flt3L inoculation were enriched, and then CD8^+ cDCs were positively sorted by MACS technology (Miltenyi Biotec). Splenic B cells were purified through negative selection by Streptavidin-MicroBeads (Miltenyi Biotec 130-048-102) combined with different antibodies cocktail to exclude non-B cells. The antibodies cocktail was composed of biotinylated antibodies against CD4 (T cells and DCs) (eBioscience, clone GK1.5), CD8 (T cells and DCs) (eBioscience, clone 53-6.7), CD43 (T cells, monocytes, granulocytes) (eBioscience, clone eBioR2/60), and Ter119 (erythrocytes) (eBioscience, clone TER119). B cells were further purified through MACS LS column (Miltenyi Biotec 130-042-401).
Figure 7 SUP3 promoted stronger B cell activation in vitro. Purified splenic B cells (2 × 10^6 cells/mL) were treated with SUP3 (200 nM), Pam3 (200 nM), or lipopolysaccharide (LPS) (1.5 µg/mL), respectively. (A) Surface CD25, CD40, and CD86 were stained 24 h post-stimulation. (B) Supernatants were harvested 3 or 5 days post-stimulation, and total IgM in the supernatant was determined by ELISA. Representative data was from two independent experiments with triplicated wells in each group (**p < 0.01).

Molecule | TNFα secretion by Tlr2−/− RAW cells (Tlr2^−/− RAW 264.7 cells) | expressions of CD40 and CD86 on splenic CD8+ cDCs in vivo (splenic CD8^+ cDCs) | CD25, CD40, and CD86 on B lymphocytes (splenic B cells)
CCCCCCCCCCCCCCCC(=O)N[C@@H](CSC[C@@H](COC(=O)NCCCCCCCCCCCCCC)OC(=O)NCCCCCCCCCCCCCC)C(=O)NCC(=O)N[C@@H](CCCCN)C(=O)N[C@@H](CCCCN)C(=O)N[C@@H](CCCCN)C(=O)O [SUP3, (2S,5S,8S,14R,18R)-2,5,8-tris(4-aminobutyl)-4,7,10,13,21-pentaoxo-14-palmitamido-18-((tetradecylcarbamoyl)oxy)-20-oxa-16-thia-3,6,9,12,22-pentaazahexatriacontan-1-oic acid] (Palmitoyl-C(X1)GKKK-OH) | no secretion of TNFα | increased | marked upregulation
Pam3CSK4 [reference compound] | no secretion of TNFα | increased | marked upregulation
